The test system of this assay is BDF1 mice, Adenocarcinoma 755 s.c., tumor weight T/C. Put plainly: NCI In Vivo Anticancer Drug Screen. Data for tumor model Adenocarcinoma 755 (subcutaneous) in B6D2F1 (BDF1) mice. The conditions noted are these: endpoint: mean tumor weight, higher = larger tumour. The method in brief: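 Tumor-bearing mice receive test compound while controls get vehicle alone. Antitumor effect is scored from survival or tumor dimensions as a T/C quotient.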

Where [1] appears, read: dose: 50.0 mg/kg/injection, schedule: Q01DX011 (ip), vehicle: carboxymethylcellulose (CMC).
The mark [2] stands for this setting: dose: 4.0 mg/kg/injection, schedule: Q01DX011 (ip), vehicle: methylcellulose (MC).
[3] abbreviates: dose: 8.0 mg/kg/injection, schedule: Q01DX011 (ip), vehicle: methylcellulose (MC).
Where [4] appears, read: dose: 16.0 mg/kg/injection, schedule: Q01DX011 (ip), vehicle: methylcellulose (MC).
[5] abbreviates: dose: 30.0 mg/kg/injection, schedule: Q01DX011 (ip), vehicle: carboxymethylcellulose (CMC).
The mark [6] stands for this setting: dose: 120.0 mg/kg/injection, schedule: Q01DX011 (ip), vehicle: carboxymethylcellulose (CMC).
[7] abbreviates: dose: 240.0 mg/kg/injection, schedule: Q01DX011 (ip), vehicle: carboxymethylcellulose (CMC).
The mark [8] stands for this setting: dose: 125.0 mg/kg/injection, schedule: Q01DX011 (ip), vehicle: methylcellulose (MC).
Setting [9] is: dose: 250.0 mg/kg/injection, schedule: Q01DX011 (ip), vehicle: methylcellulose (MC).
Setting [10] is: dose: 31.0 mg/kg/injection, schedule: Q01DX011 (ip), vehicle: methylcellulose (MC).

Where “and” joins values, the source holds several entries; their conditions need not be identical. Equal entries are not always repeated.

As a reminder, the T/C is the ratio of treated to control.

As for `CCC1/C=C/C=C/CC(C)C(O)C(C)(O)C(=O)C(C)C(O)C(C)C(=O)C(C)C(O)C(C)/C=C/C(=O)OC2C(C)C(CC1)OC1(OC(CC(C)O)C(C)CC1=O)C2C` (stereo not given) (tested in a mixture with another compound), the T/C is 68 % of control (dose: 1.0 mg/kg/injection, schedule: Q01DX011 (ip), vehicle: saline); 87 % of control (dose: 2.0 mg/kg/injection, schedule: Q01DX011 (ip), vehicle: saline); 61 % of control (dose: 4.0 mg/kg/injection, schedule: Q01DX011 (ip), vehicle: saline).

Turning to `C=CC1OCCN1CC` (stereo not given), the T/C was 106 % of control (dose: 12.5 mg/kg/injection, schedule: Q01DX011 (ip), vehicle: other) and 87 % of control (dose: 50.0 mg/kg/injection, schedule: Q01DX011 (ip), vehicle: other).

On to `Cc1cc(N(CCCl)CCCl)ccc1N=Nc1ccccc1C(=O)O`, for which the T/C runs as follows: (dose: 0.44 mg/kg/injection, schedule: Q01DX011 (ip), vehicle: carboxymethylcellulose (CMC)) 115 % of control; (dose: 0.87 mg/kg/injection, schedule: Q01DX011 (ip), vehicle: carboxymethylcellulose (CMC)) 39 % of control; (dose: 1.75 mg/kg/injection, schedule: Q01DX011 (ip), vehicle: carboxymethylcellulose (CMC)) 53 % of control; (dose: 3.5 mg/kg/injection, schedule: Q01DX011 (ip), vehicle: carboxymethylcellulose (CMC)) 20 % of control.

For the compound `CC1(O)CCC2C3CCC4=CC(=O)CCC4C3CCC21C` (stereo not given), the T/C was 93 % of control (dose: 50.0 mg/kg/injection, schedule: Q01DX011 (sc), vehicle: steriod suspending solution); 76 % of control (dose: 100.0 mg/kg/injection, schedule: Q01DX011 (sc), vehicle: steriod suspending solution); 59 % of control (dose: 200.0 mg/kg/injection, schedule: Q01DX011 (sc), vehicle: steriod suspending solution); 51 % of control (dose: 400.0 mg/kg/injection, schedule: Q01DX011 (sc), vehicle: steriod suspending solution); 47 % of control (dose: 500.0 mg/kg/injection, schedule: Q01DX011 (sc), vehicle: steriod suspending solution); 38 % of control (dose: 600.0 mg/kg/injection, schedule: Q01DX011 (sc), vehicle: steriod suspending solution).

`CCCCN(C)N=Nc1ccc(OCC(=O)NN)cc1`: the T/C under setting [1] is 75 % of control.

Turning to `CSc1nc(Cl)c(Br)c(Sc2nc(N)nc3nc[nH]c23)n1`, the T/C is, setting by setting: (dose: 6.25 mg/kg/injection, schedule: Q01DX011 (ip), vehicle: methylcellulose (MC)) 39 % of control; (dose: 12.0 mg/kg/injection, schedule: Q01DX011 (ip), vehicle: carboxymethylcellulose (CMC)) 59 % of control; (dose: 12.0 mg/kg/injection, schedule: Q01DX011 (ip), vehicle: methylcellulose (MC)) 29 % of control; (dose: 12.5 mg/kg/injection, schedule: Q01DX011 (ip), vehicle: methylcellulose (MC)) 27 % of control; (dose: 25.0 mg/kg/injection, schedule: Q01DX011 (ip), vehicle: carboxymethylcellulose (CMC)) 28 % of control; (dose: 25.0 mg/kg/injection, schedule: Q01DX011 (ip), vehicle: methylcellulose (MC)) 33 % of control and 48 % of control. In addition, the T/C is 5 % of control under setting [1]; 42 % of control (dose: 50.0 mg/kg/injection, schedule: Q01DX011 (ip), vehicle: methylcellulose (MC)); 7 % of control (dose: 100.0 mg/kg/injection, schedule: Q01DX011 (ip), vehicle: methylcellulose (MC)).

Take `Cn1cnc2c(C(F)(F)F)nc(Cl)nc21`: the T/C reads like this: (dose: 30.0 mg/kg/injection, schedule: Q01DX011 (ip), vehicle: saline) 98 % of control; (dose: 60.0 mg/kg/injection, schedule: Q01DX011 (ip), vehicle: saline) 91 % of control.

As for `CC(C)CSc1nc(N)nc2nc[nH]c12`, the T/C runs as follows: (dose: 2.0 mg/kg/injection, schedule: Q01DX011 (ip), vehicle: methylcellulose (MC)) 46 % of control; under setting [2], 30 % of control; under setting [3], 10 % of control; under setting [4], 6 % of control; (dose: 32.0 mg/kg/injection, schedule: Q01DX011 (ip), vehicle: methylcellulose (MC)) 5 % of control; (dose: 64.0 mg/kg/injection, schedule: Q01DX011 (ip), vehicle: methylcellulose (MC)) 4 % of control.

For `Nc1[nH]c(=S)ncc1NC=O`, the T/C is 90 % of control under setting [5], 91 % of control under setting [6] and 79 % of control under setting [7].

Regarding `Cc1ccc(CSc2nc(N)nc3nc[nH]c23)cc1C`, the T/C (dose: 31.25 mg/kg/injection, schedule: Q01DX011 (ip), vehicle: methylcellulose (MC)) is 37 % of control; the T/C (dose: 62.5 mg/kg/injection, schedule: Q01DX011 (ip), vehicle: methylcellulose (MC)) was 33 % of control; the T/C under setting [8] was 15 % of control; the T/C under setting [9] is 1 % of control and 7 % of control; the T/C (dose: 350.0 mg/kg/injection, schedule: Q01DX011 (ip), vehicle: methylcellulose (MC)) is 5 % of control.

Regarding `O=P(OCC1OC(n2cnc3c(=S)nc[nH]c32)C(O)C1O)(Oc1ccccc1)Oc1ccccc1` (stereo not given), the T/C under setting [2] was 89 % of control; the T/C under setting [3] was 88 % of control; the T/C under setting [4] is 41 % of control; the T/C under setting [10] was 39 % of control; the T/C (dose: 62.0 mg/kg/injection, schedule: Q01DX011 (ip), vehicle: methylcellulose (MC)) was 36 % of control; the T/C under setting [8] is 34 % of control.

For `CCCCSc1nc(N)nc2c1ncn2CC(C)CC` (stereo not given), the T/C is 30 % of control and 47 % of control (dose: 37.5 mg/kg/injection, schedule: Q01DX011 (ip), vehicle: carboxymethylcellulose (CMC)); 2 % of control and 18 % of control (dose: 150.0 mg/kg/injection, schedule: Q01DX011 (ip), vehicle: carboxymethylcellulose (CMC)); 2 % of control (dose: 300.0 mg/kg/injection, schedule: Q01DX011 (ip), vehicle: carboxymethylcellulose (CMC)).

As to `CN(C)N=Nc1ccc(C(=O)NC(CCC(=O)NN)C(=O)NN)cc1` (stereo not given), the T/C is 92 % of control (dose: 100.0 mg/kg/injection, schedule: Q01DX011 (ip), vehicle: saline) and 81 % of control (dose: 150.0 mg/kg/injection, schedule: Q01DX011 (ip), vehicle: saline).

As for `CCCCN(C)N=Nc1ccc(C(N)=O)cc1`, the T/C is 14 % of control (dose: 16.0 mg/kg/injection, schedule: Q01DX011 (ip), vehicle: carboxymethylcellulose (CMC)); 27 % of control (dose: 31.0 mg/kg/injection, schedule: Q01DX011 (ip), vehicle: carboxymethylcellulose (CMC)); 25 % of control under setting [1]; 14 % of control (dose: 75.0 mg/kg/injection, schedule: Q01DX011 (ip), vehicle: carboxymethylcellulose (CMC)).

For the compound `CS(=O)(=O)OCC(O)C(O)COS(C)(=O)=O` (stereo not given), the T/C was 65 % of control (dose: 125.0 mg/kg/injection, schedule: Q01DX011 (ip), vehicle: carboxymethylcellulose (CMC)); 66 % of control (dose: 200.0 mg/kg/injection, schedule: Q01DX011 (ip), vehicle: saline); 20 % of control (dose: 250.0 mg/kg/injection, schedule: Q01DX011 (ip), vehicle: carboxymethylcellulose (CMC)); 6 % of control (dose: 500.0 mg/kg/injection, schedule: Q01DX011 (ip), vehicle: carboxymethylcellulose (CMC)); 17 % of control (dose: 800.0 mg/kg/injection, schedule: Q01DX011 (ip), vehicle: saline).

In the case of `Cn1ncc2c(NCc3ccccc3)ncnc21`, the T/C by setting is: (dose: 5.0 mg/kg/injection, schedule: Q01DX011 (ip), vehicle: carboxymethylcellulose (CMC)) 62 % of control and 66 % of control and 71 % of control; (dose: 10.0 mg/kg/injection, schedule: Q01DX011 (ip), vehicle: carboxymethylcellulose (CMC)) 43 % of control and 58 % of control and 60 % of control; (dose: 20.0 mg/kg/injection, schedule: Q01DX011 (ip), vehicle: carboxymethylcellulose (CMC)) 5 % of control and 24 % of control and 29 % of control.

Turning to `CC(=O)OCC1OC(n2cnc3c(N)ncnc32)C(OC(C)=O)C1OC(C)=O` (stereo not given), the T/C under setting [5] is 150 % of control, the T/C under setting [6] was 113 % of control and the T/C under setting [7] was 103 % of control.

On to `CSc1ncc(Br)c(=O)[nH]1`, for which the T/C is, setting by setting: (dose: 15.0 mg/kg/injection, schedule: Q01DX011 (ip), vehicle: methylcellulose (MC)) 81 % of control; under setting [10], 72 % of control; under setting [9], 56 % of control.
